In US20240239789A1, “SALTS OF 2-BRO[…] DIETHYLAMIDE” (Ceruvia Lifesciences LLC, priority 2022, published 2024):

What was measured:
Type in all cases: physicochemical
[1] = Dynamic vapor sorption (DVS) moisture sorption analysis
Protocol: Sorption isotherms were obtained using a Hiden Isochema moisture sorption analyser (model IGAsorp), controlled by IGAsorp Systems Software V6.50.48. The sample was maintained at a constant temperature (25° C.) by the instrument controls. The humidity was controlled by mixing streams of dry and wet nitrogen, with a total flow of 250 mL/min. The instrument was verified for relative humidity content by measuring three calibrated Rotronic salt solutions (10-50-88%). The weight change of the sample was monitored as a function of humidity by a microbalance (accuracy +/−0.005 mg). A defined amount of sample was placed in a tared mesh stainless steel basket under ambient conditions. A full experimental cycle typically consisted of three scans (sorption, desorption and sorption) at a constant temperature (25° C.) and 10% RH intervals over a 0-90% range (60 minutes for each humidity level).

[2] = Thermogravimetric analysis (TGA) weight loss after drying; settings: after drying in vacuo at 50° C. for 18 hours; between 25° C. and 200° C.; heating rate 20° C./min
Protocol: TGA data were collected on a TA Instruments Discovery TGA equipped with a 25-position auto-sampler. The instrument was calibrated using a certified weight and certified Alumel and Nickel for temperature. A predefined amount of the sample, ca. 5 mg, was loaded into a pre-tared aluminum ACCUPIK™ sample pan and platinum crucible and was heated at 20° C./min from ambient (room) temperature to 400° C. unless otherwise stated. A nitrogen purge at 25 mL/min was maintained over the sample. The instrument control, data acquisition and analysis were performed with TA Instruments TRIOS software v4.1.1.33073.

[3] = XRPD analysis ex DVS following equilibration at extremes of humidity; settings: 0% and 90% relative humidity
Description: The crystalline salts of 2-Br-LSD were characterized by their powder X-ray diffraction patterns. Powder X-ray diffractograms of the crystalline salts of 2-Br-LSD described herein were collected on a PANalytical X'pert PRO diffractometer using Cu Kα radiation (45 kV, 40 mA), θ-θ goniometer, focusing mirror, divergence slit (½″), soller slits at both incident and divergent beam (4 mm) and a PIXcel detector. Data was presented using X'Pert Data Viewer, version 1.2d. XRPD patterns were acquired under ambient conditions via a transmission foil sample stage (polyimide—Kapton®, 12.7 μm thickness film). The data collection range was 2.994-35° 2θ with a continuous scan speed of 0.202004° s^−1. Lists of major XRPD peaks (relative intensity ≥10%) for the crystalline salts of the present disclosure are tabulated below.
Sorption isotherms were obtained using a Hiden Isochema moisture sorption analyser (model IGAsorp), controlled by IGAsorp Systems Software V6.50.48. The sample was maintained at a constant temperature (25° C.) by the instrument controls. The humidity was controlled by mixing streams of dry and wet nitrogen, with a total flow of 250 mL/min. The instrument was verified for relative humidity content by measuring three calibrated Rotronic salt solutions (10-50-88%). The weight change of the sample was monitored as a function of humidity by a microbalance (accuracy +/−0.005 mg). […]

Structure (SMILES): Br.CCN(CC)C(=O)[C@@H]1C=C2c3cccc4[nH]c(Br)c(c34)C[C@H]2N(C)C1 [2-Br-LSD hydrobromide (Form 1), 2-bromolysergic acid diethylamide hydrobromide]
- weight change upon dynamic vapor sorption analysis ([1]; 25° C., RH range 0-90%, 10% RH intervals, 60 minutes for each humidity level): less than 0.5%
- water retained at 0% RH (reversibility of water uptake) ([1]; 25° C., desorption to 0% RH): no water was retained
- further weight increase between 60% RH and 90% RH ([1]; 25° C., initial sorption cycle, between 60% RH and 90% RH): 0.2 wt %
- water gained during initial sorption cycle up to 60% RH ([1]; 25° C., initial sorption cycle, up to 60% RH): 0.21%
- total water uptake ([1]; 25° C., initial sorption cycle, up to 90% RH): 0.4%
- hygroscopicity ([1]; definition in b65: TGA <1% weight loss and DVS <about 0.5% weight change): non-hygroscopic
- weight loss upon thermogravimetric analysis [2]: less than 1%
- solid form change following equilibration at extremes of humidity [3]: no form change occurred
